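Dose response: 5 concentrations. Exposure: 48 h. Format: 96-well plates. Endpoint: linear interpolation; highest concentration if not reached. At the GI50, growth is halved. The concentration for full growth arrest is given as TGI.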
How the values were obtained:
Experiment in all cases: NCI anticancer screen, dose series, 48 h
786-0 renal = tested on: 786-0 renal
A498 renal = tested on: A498 renal
A549 NSCLC = tested on: A549 NSCLC
ACHN renal = tested on: ACHN renal
BT-549 breast = tested on: BT-549 breast
CAKI-1 renal = tested on: CAKI-1 renal
CCRF-CEM leukemia = tested on: CCRF-CEM leukemia
DU-145 prostate = tested on: DU-145 prostate
HCC-2998 colon = tested on: HCC-2998 colon
HCT-116 colon = tested on: HCT-116 colon
HCT-15 colon = tested on: HCT-15 colon
HL-60(TB) leukemia = tested on: HL-60(TB) leukemia
HOP-62 NSCLC = tested on: HOP-62 NSCLC
HOP-92 NSCLC = tested on: HOP-92 NSCLC
HS 578T breast = tested on: HS 578T breast
HT29 colon = tested on: HT29 colon
IGROV1 ovarian = tested on: IGROV1 ovarian
K-562 leukemia = tested on: K-562 leukemia
M14 melanoma = tested on: M14 melanoma
MALME-3M melanoma = tested on: MALME-3M melanoma
MCF7 breast = tested on: MCF7 breast
MDA-MB-231 breast = tested on: MDA-MB-231 breast
MDA-MB-435 = tested on: MDA-MB-435
MOLT-4 leukemia = tested on: MOLT-4 leukemia
NCI-H226 lung = tested on: NCI-H226 lung
NCI-H23 lung = tested on: NCI-H23 lung
NCI-H460 lung = tested on: NCI-H460 lung
NCI/ADR-RES ovarian = tested on: NCI/ADR-RES ovarian
OVCAR-3 ovarian = tested on: OVCAR-3 ovarian
OVCAR-4 ovarian = tested on: OVCAR-4 ovarian
OVCAR-5 ovarian = tested on: OVCAR-5 ovarian
OVCAR-8 ovarian = tested on: OVCAR-8 ovarian
PC-3 prostate = tested on: PC-3 prostate
RPMI-8226 leukemia = tested on: RPMI-8226 leukemia
RXF 393 renal = tested on: RXF 393 renal
SF-268 CNS = tested on: SF-268 CNS
SF-295 CNS = tested on: SF-295 CNS
SF-539 CNS = tested on: SF-539 CNS
SK-MEL-2 melanoma = tested on: SK-MEL-2 melanoma
SK-MEL-28 melanoma = tested on: SK-MEL-28 melanoma
SK-MEL-5 melanoma = tested on: SK-MEL-5 melanoma
SK-OV-3 ovarian = tested on: SK-OV-3 ovarian
SN12C renal = tested on: SN12C renal
SNB-19 CNS = tested on: SNB-19 CNS
SNB-75 CNS = tested on: SNB-75 CNS
SR leukemia = tested on: SR leukemia
SW-620 colon = tested on: SW-620 colon
T-47D breast = tested on: T-47D breast
TK-10 renal = tested on: TK-10 renal
U251 CNS = tested on: U251 CNS
UACC-257 melanoma = tested on: UACC-257 melanoma
UACC-62 melanoma = tested on: UACC-62 melanoma
UO-31 renal = tested on: UO-31 renal

Work on `CN(C)c1cccc2c(S(=O)(=O)N[C@H]3CC[C@H]4[C@@H]5CCc6cc(O)ccc6[C@H]5CC[C@]34C)cccc12` yielded a GI50 (786-0 renal) of 3.18 µM, a TGI (786-0 renal) of 9.78 µM and a GI50 (A498 renal) of 1.75 µM. For the same molecule, the TGI (A498 renal) was 4 µM, the GI50 (A549 NSCLC) was 2.51 µM and the TGI (A549 NSCLC) was 10.7 µM. For the same molecule, the GI50 (ACHN renal) was 3.1 µM, the TGI (ACHN renal) was 14.1 µM and the GI50 (BT-549 breast) was 2.55 µM. It also gave a TGI (BT-549 breast) of 6.5 µM, a GI50 (CAKI-1 renal) of 2.05 µM and a TGI (CAKI-1 renal) of 7.43 µM. The GI50 (CCRF-CEM leukemia) was 3.25 µM, the TGI (CCRF-CEM leukemia) was greater than 100 µM and the GI50 (DU-145 prostate) was 2.71 µM. The TGI (DU-145 prostate) was 8.51 µM, the GI50 (HCC-2998 colon) was 3.17 µM and the TGI (HCC-2998 colon) was 14.6 µM. The GI50 (HCT-116 colon) was 2.27 µM, the TGI (HCT-116 colon) was 5.85 µM and the GI50 (HCT-15 colon) was 0.951 µM. The TGI (HCT-15 colon) was 8.38 µM, the GI50 (HL-60(TB) leukemia) was 2.78 µM and the TGI (HL-60(TB) leukemia) was 8.23 µM. It also gave a GI50 (HOP-62 NSCLC) of 3.97 µM, a TGI (HOP-62 NSCLC) of 13.9 µM and a GI50 (HOP-92 NSCLC) of 1.67 µM. It also gave a TGI (HOP-92 NSCLC) of 7.64 µM, a GI50 (HS 578T breast) of 2.86 µM and a TGI (HS 578T breast) of 11.3 µM. It also gave a GI50 (HT29 colon) of 2.5 µM, a TGI (HT29 colon) of 5.45 µM and a GI50 (IGROV1 ovarian) of 3.45 µM. The TGI (IGROV1 ovarian) was 16.2 µM, the GI50 (K-562 leukemia) was 1.71 µM and the TGI (K-562 leukemia) was greater than 100 µM. It also gave a GI50 (M14 melanoma) of 3.7 µM, a TGI (M14 melanoma) of 18.3 µM and a GI50 (MALME-3M melanoma) of 1.9 µM. It also gave a TGI (MALME-3M melanoma) of 5.61 µM, a GI50 (MCF7 breast) of 2.59 µM and a TGI (MCF7 breast) greater than 100 µM. The GI50 (MDA-MB-231 breast) was 1.75 µM, the TGI (MDA-MB-231 breast) was 4.41 µM and the GI50 (MDA-MB-435) was 1.15 µM. For the same molecule, the TGI (MDA-MB-435) was 2.69 µM, the GI50 (MOLT-4 leukemia) was 3.14 µM and the TGI (MOLT-4 leukemia) was greater than 100 µM. It also gave a GI50 (NCI-H226 lung) of 3.02 µM, a TGI (NCI-H226 lung) of 11.2 µM and a GI50 (NCI-H23 lung) of 2.99 µM. It also gave a TGI (NCI-H23 lung) of 22 µM, a GI50 (NCI-H460 lung) of 2 µM and a TGI (NCI-H460 lung) of 4.52 µM. It also gave a GI50 (NCI/ADR-RES ovarian) of 2.74 µM, a TGI (NCI/ADR-RES ovarian) of 9.9 µM and a GI50 (OVCAR-3 ovarian) of 2.33 µM. The TGI (OVCAR-3 ovarian) was 6.26 µM, the GI50 (OVCAR-4 ovarian) was 2.8 µM and the TGI (OVCAR-4 ovarian) was 13.8 µM. For the same molecule, the GI50 (OVCAR-5 ovarian) was 3.09 µM, the TGI (OVCAR-5 ovarian) was 13.2 µM and the GI50 (OVCAR-8 ovarian) was 3.3 µM. The TGI (OVCAR-8 ovarian) was 15.9 µM, the GI50 (PC-3 prostate) was 2.36 µM and the TGI (PC-3 prostate) was greater than 100 µM. For the same molecule, the GI50 (RPMI-8226 leukemia) was 2.32 µM, the TGI (RPMI-8226 leukemia) was 7.8 µM and the GI50 (RXF 393 renal) was 2.02 µM. It also gave a TGI (RXF 393 renal) of 4.34 µM, a GI50 (SF-268 CNS) of 3.03 µM and a TGI (SF-268 CNS) of 15 µM. For the same molecule, the GI50 (SF-295 CNS) was 1.02 µM, the TGI (SF-295 CNS) was 2.7 µM and the GI50 (SF-539 CNS) was 1.88 µM. The TGI (SF-539 CNS) was 4.14 µM, the GI50 (SK-MEL-2 melanoma) was 2.37 µM and the TGI (SK-MEL-2 melanoma) was 5.48 µM. The GI50 (SK-MEL-28 melanoma) was 2.2 µM, the TGI (SK-MEL-28 melanoma) was 5.89 µM and the GI50 (SK-MEL-5 melanoma) was 1.53 µM. The TGI (SK-MEL-5 melanoma) was 2.9 µM, the GI50 (SK-OV-3 ovarian) was 3.83 µM and the TGI (SK-OV-3 ovarian) was 74.3 µM. The GI50 (SN12C renal) was 1.64 µM, the TGI (SN12C renal) was 3.43 µM and the GI50 (SNB-19 CNS) was 3.43 µM. It also gave a TGI (SNB-19 CNS) greater than 100 µM, a GI50 (SNB-75 CNS) of 1.75 µM and a TGI (SNB-75 CNS) of 9.52 µM. For the same molecule, the GI50 (SR leukemia) was 2.79 µM, the TGI (SR leukemia) was greater than 100 µM and the GI50 (SW-620 colon) was 2.72 µM. The TGI (SW-620 colon) was 14 µM, the GI50 (T-47D breast) was 3.47 µM and the TGI (T-47D breast) was 30.1 µM. For the same molecule, the GI50 (TK-10 renal) was 3.2 µM, the TGI (TK-10 renal) was 9.82 µM and the GI50 (U251 CNS) was 2.94 µM. It also gave a TGI (U251 CNS) of 10.4 µM, a GI50 (UACC-257 melanoma) of 2.51 µM and a TGI (UACC-257 melanoma) of 11.5 µM. The GI50 (UACC-62 melanoma) was 1.55 µM, the TGI (UACC-62 melanoma) was 3.46 µM and the GI50 (UO-31 renal) was 2.02 µM. For the same molecule, the TGI (UO-31 renal) was 7.51 µM.

Reference: PubChem BioAssay (NCI)
